We go through 17 compounds from US20160331798A1, “NATURAL PRODUCT INHIBITORS OF 3DG” (Dynamis Pharmaceuticals, Inc., priority 2008, published 2016).

Structures can show the parent of a compound that is named as a salt.

The conditions of assay [1]: animal models; cited from earlier work.
The nature of assay [2]: 3DG inactivation assay (3DG binding assay). The note with it: for 3DG inactivating activity: summary of Table 3. The protocol:
The following assay was used to determine inactivation of 3DG by various natural products and chemicals.
• 1. Dilute the samples with Reagent 1 to a volume of 1.9 ml and add 100 uL Reagent 6 to a total of 2 mL. • 2. Take 600 μL from each solution before incubation (as 0 day sample) • 3. Let sit for 24 hours and 72 hours at 37° and remove 600 μL for samples on day 1 and day 3) • 4.

For assay [3] the following is noted: in vivo; cited from earlier work.

For the compound `N=C(N)NN` [Aminoguanidine], the “AGEs-associated retinal, neural, arterial, and renal pathologies” value in assay [1] is reported as “reduces”.

In the case of `N=C(N)NCCC[C@H](N)C(=O)O` [Arginine], the “3DG Conc” value came out at 15.71 µM in assay [2] (2 mM, 1 day, 37°); 13.14 µM in assay [2] (2 mM, 3 days, 37°); 13.66 µM in assay [2] (6 mM, 1 day, 37°); 8.50 µM in assay [2] (6 mM, 3 days, 37°); 12.24 µM in assay [2] (12 mM, 1 day, 37°); 4.98 µM in assay [2] (12 mM, 3 days, 37°). Moreover, in assay [2], the 3DG inactivating activity result is recorded as “most amount of 3DG inactivating activity”.

Take `O=C1O[C@H]([C@@H](O)CO)C(O)=C1O` [Ascorbic Acid]: the “3DG Conc” value amounted to 13.75 µM in assay [2] (5 mM, 1 day, 37°); 11.86 µM in assay [2] (5 mM, 3 days, 37°); 13.99 µM in assay [2] (15 mM, 1 day, 37°); 10.18 µM in assay [2] (15 mM, 3 days, 37°); 17.26 µM in assay [2] (30 mM, 1 day, 37°); 12.64 µM in assay [2] (30 mM, 3 days, 37°).

Turning to `CC(C)(CO)[C@@H](O)C(=O)NCCC(=O)[O-].CC(C)(CO)[C@@H](O)C(=O)NCCC(=O)[O-].[Ca+2]` [Calcium Panthenate], the “3DG Conc” value in assay [2] (2.5 mM, 1 day, 37°) turned out to be 17.27 µM; in assay [2] (2.5 mM, 3 days, 37°), 16.18 µM; in assay [2] (5 mM, 0 day), 21.06 µM; in assay [2] (5 mM, 1 day, 37°), 18.13 µM; in assay [2] (5 mM, 3 days, 37°), 17.96 µM; in assay [2] (7.5 mM, 1 day, 37°) it was 16.92 µM. Besides, the “3DG Conc” value came to 15.37 µM in assay [2] (7.5 mM, 3 days, 37°); 18.58 µM in assay [2] (12.5 mM, 1 day, 37°); 14.57 µM in assay [2] (12.5 mM, 3 days, 37°); 22.86 µM in assay [2] (15 mM, 0 day); 18.84 µM in assay [2] (15 mM, 1 day, 37°); 16.95 µM in assay [2] (15 mM, 3 days, 37°). Moreover, the “3DG Conc” value in assay [2] (30 mM, 0 day) was 22.09 µM; in assay [2] (30 mM, 1 day, 37°), 19.56 µM; in assay [2] (30 mM, 3 days, 37°) it was 19.17 µM.

With `NCCC(=O)N[C@@H](Cc1cnc[nH]1)C(=O)O` [Carnosine], the “3DG Conc” value was found to be 16.85 µM in assay [2] (2 mM, 1 day, 37°); 15.58 µM in assay [2] (2 mM, 3 days, 37°); 16.18 µM in assay [2] (5 mM, 1 day, 37°); 14.58 µM in assay [2] (5 mM, 3 days, 37°); 15.96 µM in assay [2] (6 mM, 1 day, 37°); 16.93 µM in assay [2] (6 mM, 3 days, 37°). Besides, the “3DG Conc” value in assay [2] (12 mM, 1 day, 37°) worked out at 15.05 µM; in assay [2] (12 mM, 3 days, 37°), 12.37 µM; in assay [2] (15 mM, 1 day, 37°), 16.90 µM; in assay [2] (15 mM, 3 days, 37°), 15.39 µM; in assay [2] (30 mM, 1 day, 37°), 18.45 µM; in assay [2] (30 mM, 3 days, 37°), 13.97 µM.

Turning to `Cl.N[C@H]1C(O)O[C@H](CO)[C@@H](O)[C@@H]1O` (stereo partly drawn) [Glucosamine HCl, D-Glucosamine HCl], the “3DG Conc” value in assay [2] (5 mM, 0 day) was 25.15 µM; in assay [2] (5 mM, 1 day, 37°) it was 43.42 µM; in assay [2] (5 mM, 3 days, 37°) it was 82.33 µM; in assay [2] (15 mM, 0 day) it was 36.00 µM; in assay [2] (15 mM, 1 day, 37°), 122.14 µM; in assay [2] (15 mM, 3 days, 37°), 181.09 µM. For the same compound, the “3DG Conc” value in assay [2] (30 mM, 0 day) was found to be 56.87 µM; in assay [2] (30 mM, 1 day, 37°) it was 183.92 µM; in assay [2] (30 mM, 3 days, 37°) it was 173.60 µM.

Consider `CNC[C@H](O)[C@@H](O)[C@H](O)[C@H](O)CO.Cl` [Meglumine-HCl, reference compound], for which the “3DG Conc” value in assay [2] (5 mM, 1 day, 37°) turned out to be 17.51 µM; in assay [2] (5 mM, 3 days, 37°), 16.27 µM; in assay [2] (15 mM, 1 day, 37°) it was 16.58 µM; in assay [2] (15 mM, 3 days, 37°) it was 17.52 µM; in assay [2] (30 mM, 1 day, 37°), 15.39 µM; in assay [2] (30 mM, 3 days, 37°), 15.87 µM.

As to `CC(C)(CO)[C@@H](O)C(=O)NCCCO` [Panthenol], the “3DG Conc” value was found to be 19.54 µM in assay [2] (5 mM, 0 day); 18.10 µM in assay [2] (5 mM, 1 day, 37°); 19.51 µM in assay [2] (5 mM, 3 days, 37°); 18.08 µM in assay [2] (15 mM, 0 day); 17.74 µM in assay [2] (15 mM, 1 day, 37°); 16.84 µM in assay [2] (15 mM, 3 days, 37°). Besides, the “3DG Conc” value amounted to 18.91 µM in assay [2] (30 mM, 0 day); 17.67 µM in assay [2] (30 mM, 1 day, 37°); 17.63 µM in assay [2] (30 mM, 3 days, 37°).

Regarding `Cc1ncc(COP(=O)(O)O)c(C=O)c1O` [Pyridoxal-5′-Phosphate], the “3DG Conc” value was determined as 13.71 µM in assay [2] (2 mM, 1 day, 37°); 12.29 µM in assay [2] (2 mM, 3 days, 37°); 13.00 µM in assay [2] (6 mM, 1 day, 37°); 8.12 µM in assay [2] (6 mM, 3 days, 37°); 12.20 µM in assay [2] (12 mM, 1 day, 37°); 7.14 µM in assay [2] (12 mM, 3 days, 37°). Moreover, in assay [2], the 3DG inactivating activity result is “most amount of 3DG inactivating activity”.

For `Cc1ncc(CO)c(C=O)c1O.Cl` [Pyridoxal-HCl], the “3DG Conc” value in assay [2] (2 mM, 0 day) amounted to 16.46 µM; in assay [2] (2 mM, 1 day, 37°) it was 12.16 µM; in assay [2] (2 mM, 3 days, 37°), 16.19 µM; in assay [2] (6 mM, 0 day), 16.02 µM; in assay [2] (6 mM, 1 day, 37°), 14.57 µM; in assay [2] (6 mM, 3 days, 37°), 15.72 µM. For the same compound, the “3DG Conc” value was found to be 14.80 µM in assay [2] (12 mM, 0 day); 14.79 µM in assay [2] (12 mM, 1 day, 37°); 14.99 µM in assay [2] (12 mM, 3 days, 37°).

With `Cc1ncc(CO)c(CO)c1O` [Pyridoxine], the “3DG Conc” value in assay [2] (2 mM, 0 day) came to 16.32 µM; in assay [2] (2 mM, 1 day, 37°), 14.82 µM; in assay [2] (2 mM, 3 days, 37°), 16.35 µM; in assay [2] (6 mM, 0 day), 16.13 µM; in assay [2] (6 mM, 1 day, 37°), 16.67 µM; in assay [2] (6 mM, 3 days, 37°), 15.83 µM. Besides, the “3DG Conc” value in assay [2] (12 mM, 0 day) was found to be 15.90 µM; in assay [2] (12 mM, 1 day, 37°), 15.85 µM; in assay [2] (12 mM, 3 days, 37°), 15.44 µM.

Consider `Cc1ncc(C[n+]2csc(CCO)c2C)c(N)n1` [Thiamine-HCl], for which the “3DG Conc” value in assay [2] (5 mM, 1 day, 37°) was 16.27 µM; in assay [2] (5 mM, 3 days, 37°), 14.49 µM; in assay [2] (15 mM, 1 day, 37°) it was 14.83 µM; in assay [2] (15 mM, 3 days, 37°), 14.81 µM; in assay [2] (30 mM, 1 day, 37°) it was 17.76 µM; in assay [2] (30 mM, 3 days, 37°) it was 14.89 µM.

Take `NC[C@H]1CC[C@H](C(=O)O)CC1` [Tranexamic Acid, reference compound]: the “3DG Conc” value stood at 20.96 µM in assay [2] (5 mM, 0 day); 24.16 µM in assay [2] (5 mM, 1 day, 37°); 22.02 µM in assay [2] (5 mM, 3 days, 37°); 18.06 µM in assay [2] (15 mM, 0 day); 18.98 µM in assay [2] (15 mM, 1 day, 37°); 19.21 µM in assay [2] (15 mM, 3 days, 37°). For the same compound, the “3DG Conc” value in assay [2] (30 mM, 0 day) turned out to be 19.25 µM; in assay [2] (30 mM, 1 day, 37°) it was 17.42 µM; in assay [2] (30 mM, 3 days, 37°), 16.87 µM.

For the compound `N[C@@H](CCCCNC[C@H](O)[C@@H](O)[C@@H](O)[C@H](O)CO)C(=O)O` [galactitollysine], in assay [3], the “urinary or plasma 3DG” value was “reduced”.

Take `N[C@@H](CCCCNC[C@@H](O)[C@@H](O)[C@H](O)[C@H](O)CO)C(=O)O` [mannitollysine]: the “urinary or plasma 3DG” value in assay [3] was “reduced”.

Regarding `N[C@@H](CCCCNC[C@H](O)[C@@H](O)[C@H](O)[C@H](O)CO)C(=O)O` [sorbitollysine], the “urinary or plasma 3DG” value in assay [3] is recorded as “reduced”.

As to Thiamine nitrate, the “3DG Conc” value in assay [2] (5 mM, 1 day, 37°) worked out at 15.87 µM; in assay [2] (5 mM, 3 days, 37°), 16.45 µM; in assay [2] (15 mM, 1 day, 37°), 18.90 µM; in assay [2] (15 mM, 3 days, 37°) it was 14.19 µM; in assay [2] (30 mM, 1 day, 37°), 17.20 µM; in assay [2] (30 mM, 3 days, 37°) it was 14.85 µM.
